Measured values as given in patent US11964967B2, “Cardiac sarcomere inhibitors” (Cytokinetics, Inc., priority 2018, dated 2024).

Biological target: T1, bovine cardiac myofibrils (Bos taurus, UniProt Q9BE39)
T1 construct: full-length cardiac myosin in the context of the native sarcomere; from tissue; host or cells: bovine cardiac left ventricular tissue, homogenized with detergent (triton X-100)
Assay: Skinned bovine cardiac myofibril ATPase assay (PK/LDH-coupled)
Format: biochemical
Conditions: inhibition of steady-state ATPase activity of bovine cardiac myofibrils, calcium at 75% activation (pCa75), PM12 buffer pH 6.8; for IC50: read-out: CDMF75 IC50
Procedure: To evaluate the effect of compounds on the ATPase activity of full-length cardiac myosin in the context of the native sarcomere, skinned myofibril assays were performed. Bovine cardiac myofibrils were obtained by homogenizing bovine cardiac left ventricular tissue in the presence of a detergent such as triton X-100. Such treatment removes membranes and a majority of the soluble cytoplasmic proteins but leaves intact the cardiac sarcomeric acto-myosin apparatus. Myofibril preparations retain the ability to hydrolyze ATP in an Ca^2+ regulated manner ATPase activities of such myofibril preparations in the presence and absence of compounds were assayed at Ca^2+ concentrations activating to a defined fraction of the maximal rate (i.e., 25%, 75%). Small molecule agents were assessed for their ability to inhibit the steady-state ATPase activity of bovine cardiac myofibrils using pyruvate kinase and lactate dehydrogenase (PK/LDH)-coupled enzyme system. This assay regenerates myosin-produced ADP into ATP by oxidizing NADH, producing an absorbance change at 340 nm. Prior to testing small molecule agents, the bovine cardiac myofibrils were assessed for their calcium responsiveness and the calcium concentration that achieves either a 50% (pCa50) or 75% (pCa75) activation of the myofibril system was chosen as the final condition for assessing the inhibitory activity of the small molecule agents. All enzymatic activity was measured in a buffered solution containing 12 mM PIPES (piperazine-N,N′-bis(2-ethanesulfonic acid), 2 mM magnesium chloride at pH 6.8 (PM 12 buffer). Final assay conditions were 1 mg/mL of bovine cardiac myofibrils, 4 U/mL pyruvate kinase, 6 U/mL lactate dehydrogenase, 50 μM ATP, 0.1 mg/mL BSA (bovine serum albumin), 10 ppm antifoam, 1 mM DTT, 0.5 mM NADH, 1.5 mM PEP, 0.6 mM EGTA, and an amount of CaCl2) sufficient to achieve either 50% or 75% activation of the myofibril ATPase activity. Results for compounds tested are provided in Table A. Compounds tested were prepared in accordance with the synthetic procedures described herein.

T1 sequence (Q9BE39 whole entry): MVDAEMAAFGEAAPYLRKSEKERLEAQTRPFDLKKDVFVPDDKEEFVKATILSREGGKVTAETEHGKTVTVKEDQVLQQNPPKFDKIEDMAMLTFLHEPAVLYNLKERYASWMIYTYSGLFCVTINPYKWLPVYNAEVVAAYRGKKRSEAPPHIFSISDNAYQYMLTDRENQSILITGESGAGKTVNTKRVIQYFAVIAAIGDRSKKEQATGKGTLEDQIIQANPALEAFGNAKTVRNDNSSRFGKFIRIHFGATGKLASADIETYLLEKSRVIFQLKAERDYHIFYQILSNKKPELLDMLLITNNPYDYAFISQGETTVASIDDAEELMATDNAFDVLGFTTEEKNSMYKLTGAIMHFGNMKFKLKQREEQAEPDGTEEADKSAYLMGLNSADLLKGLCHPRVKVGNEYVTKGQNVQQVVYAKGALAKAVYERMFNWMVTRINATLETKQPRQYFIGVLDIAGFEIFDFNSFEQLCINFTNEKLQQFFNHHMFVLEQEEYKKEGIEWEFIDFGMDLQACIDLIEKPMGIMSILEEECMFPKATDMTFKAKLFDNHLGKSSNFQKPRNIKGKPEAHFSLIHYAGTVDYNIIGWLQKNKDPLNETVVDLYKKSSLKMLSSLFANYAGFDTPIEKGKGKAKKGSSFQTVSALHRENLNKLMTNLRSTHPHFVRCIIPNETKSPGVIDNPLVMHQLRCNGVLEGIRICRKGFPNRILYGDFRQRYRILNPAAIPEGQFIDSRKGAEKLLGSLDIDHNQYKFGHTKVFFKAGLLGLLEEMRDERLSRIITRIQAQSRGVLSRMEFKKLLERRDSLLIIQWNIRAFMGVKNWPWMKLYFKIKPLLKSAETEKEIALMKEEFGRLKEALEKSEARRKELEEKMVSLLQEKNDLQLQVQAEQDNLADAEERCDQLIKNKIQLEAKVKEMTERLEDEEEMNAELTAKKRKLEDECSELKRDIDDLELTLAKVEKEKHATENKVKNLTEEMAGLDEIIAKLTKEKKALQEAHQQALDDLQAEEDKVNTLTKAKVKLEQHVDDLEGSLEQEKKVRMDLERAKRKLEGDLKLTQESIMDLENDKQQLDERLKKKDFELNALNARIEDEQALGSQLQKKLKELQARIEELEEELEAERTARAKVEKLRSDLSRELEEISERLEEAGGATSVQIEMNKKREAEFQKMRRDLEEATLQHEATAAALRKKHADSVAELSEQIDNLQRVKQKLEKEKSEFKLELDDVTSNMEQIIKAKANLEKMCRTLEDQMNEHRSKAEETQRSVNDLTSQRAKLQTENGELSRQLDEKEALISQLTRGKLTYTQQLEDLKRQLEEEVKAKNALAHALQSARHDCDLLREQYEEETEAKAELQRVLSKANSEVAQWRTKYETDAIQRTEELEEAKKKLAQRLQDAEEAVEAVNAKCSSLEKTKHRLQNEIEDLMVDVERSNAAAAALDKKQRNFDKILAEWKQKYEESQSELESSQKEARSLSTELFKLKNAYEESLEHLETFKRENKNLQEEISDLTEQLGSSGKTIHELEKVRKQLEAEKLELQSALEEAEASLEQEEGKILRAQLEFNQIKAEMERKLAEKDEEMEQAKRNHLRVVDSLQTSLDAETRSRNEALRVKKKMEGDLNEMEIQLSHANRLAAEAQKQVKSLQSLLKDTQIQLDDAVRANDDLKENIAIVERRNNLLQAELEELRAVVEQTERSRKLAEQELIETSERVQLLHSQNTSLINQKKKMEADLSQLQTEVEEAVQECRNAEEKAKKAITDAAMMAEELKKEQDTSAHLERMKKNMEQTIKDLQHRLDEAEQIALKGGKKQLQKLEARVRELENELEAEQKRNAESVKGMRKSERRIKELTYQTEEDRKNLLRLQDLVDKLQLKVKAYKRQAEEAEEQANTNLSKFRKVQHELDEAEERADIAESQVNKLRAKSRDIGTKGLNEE
T1 sequence (P85100 whole entry partner): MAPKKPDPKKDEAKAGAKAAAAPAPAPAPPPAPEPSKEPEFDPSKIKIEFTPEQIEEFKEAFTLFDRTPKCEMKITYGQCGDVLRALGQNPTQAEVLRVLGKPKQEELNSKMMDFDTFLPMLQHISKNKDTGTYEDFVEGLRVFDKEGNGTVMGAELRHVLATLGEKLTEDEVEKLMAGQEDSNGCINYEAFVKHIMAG
T1 sequence (Q3SZE5 whole entry partner): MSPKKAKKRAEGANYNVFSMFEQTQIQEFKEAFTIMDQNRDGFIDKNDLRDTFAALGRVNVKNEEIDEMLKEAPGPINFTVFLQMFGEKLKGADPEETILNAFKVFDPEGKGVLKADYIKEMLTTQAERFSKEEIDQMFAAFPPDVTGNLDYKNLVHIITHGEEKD

SMILES: CCc1nc(-c2ccc3c(c2)CCC3C(=O)Nc2ccnc(C)c2)no1 (racemic) [Compound 2, 5-(5-ethyl-1,2,4-oxadiazol-3-yl)-N-(2-methylpyridin-4-yl)-2,3-dihydro-1H-indene-1-carboxamide]
- CDMF75 IC15: 1.6 µM
- IC50: 5.5 µM

SMILES: CCc1nc(-c2ccc3c(c2)CCC3C(=O)Nc2ccnn2C)no1 (racemic) [Compound 5, 5-(5-ethyl-1,2,4-oxadiazol-3-yl)-N-(1-methyl-1H-pyrazol-5-yl)-2,3-dihydro-1H-indene-1-carboxamide]
- CDMF75 IC15: >39.2 µM
- IC50: > 39.2 µM

SMILES: CCc1nc(-c2ccc3c(c2)CCC3C(=O)Nc2ccccc2)no1 (racemic) [Compound 8, 5-(5-ethyl-1,2,4-oxadiazol-3-yl)-N-phenyl-2,3-dihydro-1H-indene-1-carboxamide]
- CDMF75 IC15: 1.3 µM
- IC50: 6.1 µM

SMILES: CCNC(=O)C1CCc2cc(-c3noc(CC)n3)ccc21 (racemic) [Compound 11, N-ethyl-5-(5-ethyl-1,2,4-oxadiazol-3-yl)-2,3-dihydro-1H-indene-1-carboxamide]
- CDMF75 IC15: >39.2 µM
- IC50: > 39.2 µM

SMILES: Cc1cc(NC(=O)C2CCc3cc(-c4noc(C(F)F)n4)ccc32)ccn1 (racemic) [Compound 14, 5-(5-(difluoromethyl)-1,2,4-oxadiazol-3-yl)-N-(2-methylpyridin-4-yl)-2,3-dihydro-1H-indene-1-carboxamide]
- CDMF75 IC15: 4.4 µM
- IC50: 23.1 µM

SMILES: Cc1cc(NC(=O)C2CCc3cc(-c4noc(C)n4)ccc32)ccn1 (racemic) [Compound 17, 5-(5-methyl-1,2,4-oxadiazol-3-yl)-N-(2-methylpyridin-4-yl)-2,3-dihydro-1H-indene-1-carboxamide]
- CDMF75 IC15: 6.0 µM
- IC50: 33.4 µM

SMILES: Cc1cc(NC(=O)C2CCc3cc(-c4noc(C5CC5)n4)ccc32)ccn1 (racemic) [Compound 20, 5-(5-cyclopropyl-1,2,4-oxadiazol-3-yl)-N-(2-methylpyridin-4-yl)-2,3-dihydro-1H-indene-1-carboxamide]
- CDMF75 IC15: 2.6 µM
- IC50: 13.9 µM

SMILES: Cc1cc(NC(=O)C2CCc3cc(-c4noc(C(C)C)n4)ccc32)ccn1 (racemic) [Compound 23, 5-(5-isopropyl-1,2,4-oxadiazol-3-yl)-N-(2-methylpyridin-4-yl)-2,3-dihydro-1H-indene-1-carboxamide]
- CDMF75 IC15: 5.6 µM
- IC50: 29 µM

SMILES: CCc1nc(-c2ccc3c(c2)CCC32COC(=O)N2)no1 (racemic) [Compound 26, 5-(5-ethyl-1,2,4-oxadiazol-3-yl)-2,3-dihydrospiro[indene-1,4′-oxazolidin]-2′-one]
- CDMF75 IC15: 0.8 µM
- IC50: 3 µM

SMILES: Cc1nc(-c2ccc3c(c2)CCC32COC(=O)N2)no1 (racemic) [Compound 29, 5-(5-methyl-1,2,4-oxadiazol-3-yl)-2,3-dihydrospiro[indene-1,4′-oxazolidin]-2′-one]
- CDMF75 IC15: 4.2 µM
- IC50: 18.4 µM

SMILES: CC(C)c1nc(-c2ccc3c(c2)CCC32COC(=O)N2)no1 (racemic) [Compound 32, 5-(5-isopropyl-1,2,4-oxadiazol-3-yl)-2,3-dihydrospiro[indene-1,4′-oxazolidin]-2′-one]
- CDMF75 IC15: 2.7 µM
- IC50: 11.4 µM

SMILES: O=C1NC2(CCc3cc(-c4noc(C5CC5)n4)ccc32)CO1 (racemic) [Compound 35, 5-(5-cyclopropyl-1,2,4-oxadiazol-3-yl)-2,3-dihydrospiro[indene-1,4′-oxazolidin]-2′-one]
- CDMF75 IC15: 1.5 µM
- IC50: 5.8 µM

SMILES: O=C1NC2(CCc3cc(-c4noc(C(F)F)n4)ccc32)CO1 (racemic) [Compound 38, 5-(5-(difluoromethyl)-1,2,4-oxadiazol-3-yl)-2,3-dihydrospiro[indene-1,4′-oxazolidin]-2′-one]
- CDMF75 IC15: 2.5 µM
- IC50: 14.1 µM

SMILES: CCc1nc(-c2ccc3c(c2)OCC32COC(=O)N2)no1 (racemic) [Compound 41, 6-(5-ethyl-1,2,4-oxadiazol-3-yl)-2H-spiro[benzofuran-3,4′-oxazolidin]-2′-one]
- CDMF75 IC15: 0.6 µM
- IC50: 2.2 µM

SMILES: CCc1nc(-c2ccc3c(c2)CCC3C(=O)Nc2ccnc(C)c2)no1 (single isomer, unassigned) [Compound 2A]
- CDMF75 IC15: 0.7 µM
- IC50: 3 µM

SMILES: CCc1nc(-c2ccc3c(c2)CCC3C(=O)Nc2ccnc(C)c2)no1 (single isomer, unassigned) [Compound 2B]
- CDMF75 IC15: 17.5 µM
- IC50: > 39.2 µM

SMILES: CCc1nc(-c2ccc3c(c2)CCC3C(=O)Nc2ccnn2C)no1 (single isomer, unassigned) [Compound 5A]
- CDMF75 IC15: >39.2 µM
- IC50: > 39.2 µM

SMILES: CCc1nc(-c2ccc3c(c2)CCC3C(=O)Nc2ccnn2C)no1 (single isomer, unassigned) [Compound 5B]
- IC50: > 39.2 µM

SMILES: CCc1nc(-c2ccc3c(c2)CCC3C(=O)Nc2ccccc2)no1 (single isomer, unassigned) [Compound 8A]
- CDMF75 IC15: 0.7 µM
- IC50: 2.8 µM

SMILES: CCc1nc(-c2ccc3c(c2)CCC3C(=O)Nc2ccccc2)no1 (single isomer, unassigned) [Compound 8B]
- CDMF75 IC15: >39.2 µM
- IC50: > 39.2 µM

SMILES: CCNC(=O)C1CCc2cc(-c3noc(CC)n3)ccc21 (single isomer, unassigned) [Compound 11A]
- CDMF75 IC15: >39.2 µM
- IC50: > 39.2 µM

SMILES: CCNC(=O)C1CCc2cc(-c3noc(CC)n3)ccc21 (single isomer, unassigned) [Compound 11B]
- CDMF75 IC15: 26.3 µM
- IC50: > 39.2 µM

SMILES: Cc1cc(NC(=O)C2CCc3cc(-c4noc(C(F)F)n4)ccc32)ccn1 (single isomer, unassigned) [Compound 14A]
- CDMF75 IC15: 2.2 µM
- IC50: 11 µM

SMILES: Cc1cc(NC(=O)C2CCc3cc(-c4noc(C(F)F)n4)ccc32)ccn1 (single isomer, unassigned) [Compound 14B]
- CDMF75 IC15: >39.2 µM
- IC50: > 39.2 µM

SMILES: Cc1cc(NC(=O)C2CCc3cc(-c4noc(C)n4)ccc32)ccn1 (single isomer, unassigned) [Compound 17A]
- CDMF75 IC15: 2.9 µM
- IC50: 13.6 µM

SMILES: Cc1cc(NC(=O)C2CCc3cc(-c4noc(C)n4)ccc32)ccn1 (single isomer, unassigned) [Compound 17B]
- CDMF75 IC15: >39.2 µM
- IC50: > 39.2 µM

SMILES: Cc1cc(NC(=O)C2CCc3cc(-c4noc(C5CC5)n4)ccc32)ccn1 (single isomer, unassigned) [Compound 20A]
- CDMF75 IC15: 1.2 µM
- IC50: 5.6 µM

SMILES: Cc1cc(NC(=O)C2CCc3cc(-c4noc(C5CC5)n4)ccc32)ccn1 (single isomer, unassigned) [Compound 20B]
- CDMF75 IC15: 33.2 µM
- IC50: > 39.2 µM

SMILES: Cc1cc(NC(=O)C2CCc3cc(-c4noc(C(C)C)n4)ccc32)ccn1 (single isomer, unassigned) [Compound 23A]
- CDMF75 IC15: 3.6 µM
- IC50: 14.6 µM

SMILES: Cc1cc(NC(=O)C2CCc3cc(-c4noc(C(C)C)n4)ccc32)ccn1 (single isomer, unassigned) [Compound 23B]
- CDMF75 IC15: >39.2 µM
- IC50: > 39.2 µM

SMILES: CCc1nc(-c2ccc3c(c2)CCC32COC(=O)N2)no1 (single isomer, unassigned) [Compound 26A]
- CDMF75 IC15: 31.0 µM
- IC50: > 39.2 µM

SMILES: CCc1nc(-c2ccc3c(c2)CCC32COC(=O)N2)no1 (single isomer, unassigned) [Compound 26B]
- CDMF75 IC15: 0.3 µM
- IC50: 1.6 µM

SMILES: Cc1nc(-c2ccc3c(c2)CCC32COC(=O)N2)no1 (single isomer, unassigned) [Compound 29A]
- CDMF75 IC15: >39.2 µM
- IC50: > 39.2 µM

SMILES: Cc1nc(-c2ccc3c(c2)CCC32COC(=O)N2)no1 (single isomer, unassigned) [Compound 29B]
- CDMF75 IC15: 2.1 µM
- IC50: 9.1 µM

SMILES: CC(C)c1nc(-c2ccc3c(c2)CCC32COC(=O)N2)no1 (single isomer, unassigned) [Compound 32A]
- CDMF75 IC15: 1.5 µM
- IC50: 6.3 µM

SMILES: CC(C)c1nc(-c2ccc3c(c2)CCC32COC(=O)N2)no1 (single isomer, unassigned) [Compound 32B]
- CDMF75 IC15: >39.2 µM
- IC50: > 39.2 µM

SMILES: O=C1NC2(CCc3cc(-c4noc(C5CC5)n4)ccc32)CO1 (single isomer, unassigned) [Compound 35A]
- CDMF75 IC15: >39.2 µM
- IC50: > 39.2 µM

SMILES: O=C1NC2(CCc3cc(-c4noc(C5CC5)n4)ccc32)CO1 (single isomer, unassigned) [Compound 35B]
- CDMF75 IC15: 0.6 µM
- IC50: 3.4 µM

SMILES: O=C1NC2(CCc3cc(-c4noc(C(F)F)n4)ccc32)CO1 (single isomer, unassigned) [Compound 38A]
- CDMF75 IC15: 1.8 µM
- IC50: 7.5 µM
